Measurements reported in US8957012B2, “Gamma secretase inhibitor for treatment of herpesvirus infection” (The Trustees of the University of Pennsylvania, priority 2006, dated 2015).
Entries after “also recorded” stand apart in the source; their conditions may differ.

Experiments:
[1] = tested on: BCBL1 cells; experiment: Cell proliferation, trypan blue counting; assay type: cell-based; settings: KSHV-positive cells; RPMI 1640 with 5% BGS; trypan blue counts
Protocol: (§1) Each cell type (100,000 cells) was cultured in RPMI 1640 with 5% BGS. At each time point, cells were stained with trypan blue and counted. The results represent three independent experiments. (B) CFSE staining showing mitosis of DG75 (left panel) and BCBL1 (right panel) cells. Five million cells were cultured in RPMI 1640 with 5% BGS and mock treated (red curves) or treated with γ-secretase inhibitor at 20 μM (blue curves). At 48 h post treatment, cells were harvested for FACS analysis to determine mitotic activity. Gray and black curves represent negative and positive controls, respectively. The negative control was non-CFSE-staining cells, and the positive control was CFSE-staining but immediately fixed cells. (C) 7AAD staining analysis of mock treated (left panel) and KSHV-infected (right panel) primary B cells. Two million primary B cells were mock treated or KSHV infected for 4 weeks and harvested for 7AAD staining. The percentages of dead and necrotic cells are shown. (D) Four-week KSHV-infected primary B cells were harvested and mock treated (left panel) or treated with γ-secretase inhibitor (right panel) for 5 days, and then cells were stained with 7AAD for FACS analysis.
(§2) As was mentioned previously, aberrant Notch signaling is highly associated with oncogenesis. […] Cells stained with CFSE followed by treatment with the γ-secretase inhibitor for 48 h were monitored by FACS.

[2] = tested on: DG75 cells; experiment: Cell proliferation, trypan blue counting; assay type: cell-based; settings: KSHV-negative cells; RPMI 1640 with 5% BGS; trypan blue counts
Protocol: as §1, §2

[3] = tested on: BCBL1 cells; experiment: CFSE staining of mitotic activity by FACS; assay type: cell-based; settings: 20 μM, 48 h, vs untreated cells
Protocol: as §1, §2

[4] = tested on: DG75 cells; experiment: CFSE staining of mitotic activity by FACS; assay type: cell-based; settings: 20 μM, 48 h, treated vs untreated
Protocol: as §1, §2

[5] = tested on: KSHV-infected primary B cells; experiment: 7AAD staining FACS analysis of cell death; assay type: cell-based; settings: 4-week KSHV Bac36-infected primary B cells; treated 5 days; mock-treated 21.2%
[6] = tested on: BCBL1 cells; experiment: Cell cycle distribution, propidium iodide FACS; assay type: cell-based; settings: 48 h post treatment
Protocol: (§3) At 48 h post treatment, cells were harvested, fixed, and stained with propidium iodide. M2, M3, and M4 represent the G1, S, and G2/M populations of cells, respectively. M1 and M5 represent hypo- and hypernucleated cells, respectively. The percentage of cells in each different phase is indicated. Western blot analysis indicates the ICN levels in γ-secretase inhibitor-treated DG75 cells or BCBL1 cells. The relative density (RD) of ICN in each sample is also shown.
(§4) As was shown in the above Examples; a γ-secretase inhibitor can dramatically slow down proliferation of the KSHV-positive BCBL1 cell line.

[7] = tested on: DG75 cells; experiment: Cell cycle distribution, propidium iodide FACS; assay type: cell-based; settings: 48 h post treatment
Protocol: as §3, §4

[8] = tested on: Notch1 ICN in BCBL1 cells; experiment: Western blot of ICN levels; assay type: cell-based; settings: BCBL1 cells treated with inhibitor
Protocol: as §3, §4

[9] = tested on: cyclin D1 in KSHV-positive cells; experiment: Western blot of cyclin D1 levels; settings: KSHV-positive cells treated with inhibitor
[10] = tested on: BCBL1 cells; experiment: SCID mouse model of KSHV infected B lymphoma; settings: listed as GSI
[11] = tested on: KSHV in BCBL1 cells; assay type: cell-based
[12] = tested on: KSHV-GFP Bac36 recombinant virus in Vero cells; assay type: cell-based

C[C@H](NC(=O)Cc1cc(F)cc(F)c1)C(=O)N[C@H](C(=O)OC(C)(C)C)c1ccccc1 [γ-secretase inhibitor, N—[N-(3,5-difluorophenacetyl-L-alanyl)]-S-phenylglycine t-butyl ester]
proliferation of BCBL1 cells [1]: dramatically slowed | proliferation of DG75 cells [2]: minimally affected | mitotic activity (CFSE) [3]: dramatically decreased | mitotic activity (CFSE) [4]: relatively unchanged | cells that had undergone death (7AAD positive) [5]: about 45.4% | more cells arrested at G1 phase than mock-treated [6]: approximately 30% | changes in G1 phase of the cell cycle [7]: no significant changes | ICN levels (Western blot) [8]: decreased | cyclin D1 levels (Western blot) [9]: depressed | survival time of mice ([10]; SCID mice with BCBL1, 30 mg/kg daily, vs saline control): significantly prolong; also recorded: significantly increase | progression of the tumor / formation of tumor and ascites ([10]; SCID mice, 10 million BCBL1 cells i.p., 30 mg/kg i.p. daily, vs saline, 30 mg/kg): greatly slow down; also recorded: greatly delayed | histopathology of BCBL1 tumor cells ([10]; tumor tissue of treated mice, vs saline mock treated): necrosis and apoptosis; also recorded: a lot of necrotic and apoptotic cells

CCCCCCCCCCCCCC(=O)O[C@@H]1[C@@H](C)[C@@]2(O)[C@@H](C=C(CO)C[C@]3(O)C(=O)C(C)=C[C@@H]23)[C@@H]2C(C)(C)[C@]12OC(C)=O [TPA, tetradecanoyl phorbol acetate]
RTA expression (Western blot) [11]: strongly expressed | production of infectious virions in supernatant [11]: infectious virions were produced | GFP signals in cells infected with supernatant (FACS) [12]: GFP signals were detected
